Test results from US9192599B2, “Treating inflammation and inflammatory pain in mucosa using mucosal prolonged release bioadhesive therapeutic carriers” (Onxeo S.A., priority 2008, dated 2015).
Values joined by “and” are separate entries in the source; they are usually repeats but may differ in a detail not shown here. Identical values can stand only once. Like-named read-outs stand apart in the source and are kept apart here.

Key:
TNFα = TNFα quantification by ELISA in human oral mucosa organotypic culture stimulated by substance P; assay type: cell-based
Procedure: Biopsy samples of clinically healthy non keratinised human oral mucosa were obtained from patients undergoing surgery.
Small biopsies (explant size: 5 mm^2 surface and 3 mm thickness and about 15 to 20 mg weight) were transferred onto permeable polycarbonate membrane transwells (12 mm diameter, 12 μm pore size) in a well of a 12 well plate (as previously described Boisnic S. et al., 2003 and 2006) containing 700 μl of defined medium (DMEM, antibiotics, hormones, pituitary extract, SVF). For each donor, the gingival biopsy was cut to obtain the same weight so that to have comparison between different conditions tested. Explants were maintained at the interface between air and medium: the oral mucosa epithelium was in contact with air and the chorion was exposed to the media by diffusion through the porous polycarbonate membrane.
Cohesion between gingival fragment and insert was obtained with a polyvinylsiloxane addition type silicone elastomer seal (Coltene® president) in such a way that no gingival retraction or lateral passage of the product towards the dermis was possible. The culture was set up for 2 days in a humidified atmosphere containing 5% CO2 at 37° C.
The stimulation of the experimental oral mucosa inflammatory process was done by the neuropeptide substance P (SP) (Boisnic et al., 2003).
The neuropetide SP ([SP]=10 μM) was added (or not) to the culture medium in order to simulate the mucositis pro-inflammatory process. SP was in contact with the mucosal chorion after diffusion through the porous membrane.
The cell culture lasted two days (“D0” for the first day and “D1” for the second day).
Therefore the clonidine treatment was done before and during substance P stimulation.
Removed D1 culture medium in each well; aliquot it in 7 samples of 100 μl and store at −80° C. for cytokines release analysis.
At the end of each culture all the human oral mucosa explants were weighed (cytokines release expressed as pg/mg of cultured oral mucosa explants).
Mean values and standard deviations were calculated for each parameter. The statistical significance of changes recorded in the parameters were determined with unpaired Mann-Whitney U test (p<0.05).

mucositis in hamsters = conditions: for mucositis severity, daily scores vs vehicle control (Mann-Whitney rank sum): day −1 to 20; for average weight gain, % of starting weight: days −1 to 20, topical; for animal days with mucositis score of 3 or higher / peak mean mucositis score: days −1 to 20; for peak mean mucositis score: peak on day 16, scale 0-5; for course and severity of mucositis, comparison of schedules: day −1 to 20, topical
Procedure: Thirty-two (32) male Syrian Golden Hamsters were randomly assigned to four (4) equally-sized groups. […] All agents were administered topically. On study day 0, each hamster was irradiated with a single dose of 40 Gy directed to the left buccal cheek pouch. Animals were subsequently weighed and observed daily. Beginning on day 6 and continuing on alternate days for the duration of the study, images of the left cheek pouch mucosa was obtained. At the conclusion of the in-life phase of the study, the images were scored for mucositis severity using a validated scale and the number of days of ulcerative mucositis was assessed using a Chi-squared test of scores of ≧3 throughout the study. The individual daily group scores were evaluated using a rank sum test.
Mucositis was induced using a standardized acute radiation protocol. A single dose of radiation (40 Gy/dose) was administered to all animals on day 0. Radiation was generated with a 160 kilovolt potential (15-ma) source at a focal distance of 40 cm, hardened with a 0.35 mm Al filtration system. Irradiation targeted the left buccal pouch mucosa at a rate of 2.5 Gy/minute. Prior to irradiation, animals were anesthetized with an intraperitoneal injection of Ketamine (160 mg/ml) and Xylazine (8 mg/ml). The left buccal pouch was everted, fixed and isolated using a lead shield.
For the evaluation of mucositis, the animals were anesthetized with an Inhalation anesthetic, and the left pouch everted. Mucositis was scored visually by comparison to a validated photographic scale, ranging from 0 for normal, to 5 for severe ulceration (clinical scoring). In descriptive terms, this scale is defined in Table 2:
A score of 1-2 is considered to represent a mild stage of the disease, whereas a score of 3-5 is considered to indicate moderate to severe mucositis. Following visual scoring, a photograph was taken of each animal's mucosa using a standardized technique. At the conclusion of the experiment, all films were developed and the photographs randomly numbered. At least two independent trained observers graded the photographs in blinded fashion using the above-described scale (blinded scoring).
Test materials were given by topical administration directed to the left cheek pouch daily as detailed in Table 3.
to day 20. Animals in Groups 1, 3 and 4 were dosed at 6 am, 11 am, 4 pm and 9 pm. Animals in Group 2 were dosed at 6 am.
Mucositis was evaluated clinically starting on Day 6, and continuing on alternate days until day 28.

Clc1cccc(Cl)c1NC1=NCCN1 [clonidine, N-(2,6-dichlorophenyl)-4,5-dihydro-1H-imidazol-2-amine]
anti-inflammatory effect on gingiva stimulated by SP (TNFα; doses 0.009, 0.03, 0.09 and 0.3 μg/ml): No significant anti-inflammatory effect
TNFα quantification by ELISA (TNFα; gingiva + SP, 0.009 μg/ml clonidine): 1.14 ± 0.7 pg/mg
TNFα quantification by ELISA (TNFα; gingiva + SP, 0.03 μg/ml clonidine): 1.02 ± 0.4 pg/mg
TNFα quantification by ELISA (TNFα; gingiva + SP, 0.09 μg/ml clonidine): 1.08 ± 0.29 pg/mg
TNFα quantification by ELISA (TNFα; gingiva + SP, 0.3 μg/ml clonidine): 0.86 ± 0.4 pg/mg
TNFα quantification by ELISA (TNFα; gingiva + SP, 0.9 μg/ml clonidine): 0.74 pg/mg and 0.74 ± 0.36 (* p = 0.0106) pg/mg
TNFα quantification by ELISA (TNFα; gingiva + SP, 3 μg/ml clonidine): 0.67 pg/mg and 0.67 ± 0.27 (* p = 0.0056) pg/mg
TNFα quantification by ELISA (TNFα; gingiva without SP, 3 μg/ml clonidine): 0.83 ± 0.40 pg/mg
TNFα quantification by ELISA (TNFα; gingiva without SP, 3 μg/ml clonidine, listed as Clonidine): 0.83 pg/mg
mucositis severity, daily scores vs vehicle control (Mann-Whitney rank sum) (mucositis in hamsters; 12.5 μg/kg 4 times daily, days 20, 22 and 24): significantly lower mucositis scores than the vehicle controls
mucositis severity, daily scores vs vehicle control (Mann-Whitney rank sum) (mucositis in hamsters; 12.5 μg/kg 4 times daily, days 20, 22 and 24, listed as Clonidine): significantly reduced the severity of mucositis
average weight gain, % of starting weight (mucositis in hamsters; 12.5 μg/kg 4 times daily): 46.1%
animal days with mucositis score of 3 or higher (mucositis in hamsters; 12.5 μg/kg 4 times daily, p=0.047 vs vehicle): 26.0%
peak mean mucositis score (mucositis in hamsters; 12.5 μg/kg 4 times daily): 3.0
mucositis severity, daily scores vs vehicle control (Mann-Whitney rank sum) (mucositis in hamsters; 25 μg/kg 4 times daily, days 6 and 14): significantly lower mucositis scores than the vehicle controls
mucositis severity, daily scores vs vehicle control (Mann-Whitney rank sum) (mucositis in hamsters; 25 μg/kg 4 times daily, days 6 and 14, listed as Clonidine): significantly reduced the severity of mucositis
average weight gain, % of starting weight (mucositis in hamsters; 25 μg/kg 4 times daily): 45.0%
animal days with mucositis score of 3 or higher (mucositis in hamsters; 25 μg/kg 4 times daily, p=0.125 vs vehicle): 28.1%
peak mean mucositis score (mucositis in hamsters; 25 μg/kg 4 times daily): 3.1
course and severity of mucositis, comparison of schedules (mucositis in hamsters; 100 μg/kg once daily): superior to the other concentrations and schedules tested
course and severity of mucositis, comparison of schedules (mucositis in hamsters; 100 μg/kg once daily, listed as Clonidine): favorably altered the course and severity of mucositis
mucositis severity, daily scores vs vehicle control (Mann-Whitney rank sum) (mucositis in hamsters; 100 μg/kg once daily, days 16, 20 and 22): significantly different than the vehicle control group
mucositis severity, daily scores vs vehicle control (Mann-Whitney rank sum) (mucositis in hamsters; 100 μg/kg once daily, days 16, 20 and 22, listed as Clonidine): significantly reduced the severity of mucositis
average weight gain, % of starting weight (mucositis in hamsters; 100 μg/kg once daily): 51.3%
animal days with mucositis score of 3 or higher (mucositis in hamsters; 100 μg/kg once daily, p=0.003 vs vehicle): 21.9%
peak mean mucositis score (mucositis in hamsters; 100 μg/kg once daily): 2.8
severity of mucositis based on mucositis score area under the curve (mucositis in hamsters; all three treatment groups, p=0.0007): severity of mucositis was reduced
adverse reaction to treatment (mucositis in hamsters; any of the doses tested): no evidence of any significant adverse reaction

SP: neuropeptide substance P added to culture medium to simulate the mucositis pro-inflammatory process
TNFα quantification by ELISA (TNFα; gingiva + SP 10 μM, no clonidine (positive control)): 1.7 ± 1.09 (# p = 0.0056) pg/mg
TNFα quantification by ELISA (TNFα; gingiva + SP 10 μM, no clonidine (positive control), listed as substance P): 1.7 pg/mg
